This is an account of results in ChEMBL document CHEMBL1139256, “Identification of pharmacophore model, synthesis and biological evaluation of N-phenyl-1-arylamide and N-phenylbenzenesulfonamide derivatives as BACE 1 inhibitors” (Bioorg Med Chem, 2008).

*1 amine or outer side, *2 acyl side, *3 side chain or, on linkers, in order; H or OH if unused. Where a SMILES comes first, the peptide text is derived from it. [ ]: non-standard residue; d: D form. LeuΨ(S-CHOHCH2)Ala = CC(C)C[C@H](N[*:1])[C@@H](O)C[C@@H](C)C(=O)[*:2]

T1 sequence (P56817 whole entry): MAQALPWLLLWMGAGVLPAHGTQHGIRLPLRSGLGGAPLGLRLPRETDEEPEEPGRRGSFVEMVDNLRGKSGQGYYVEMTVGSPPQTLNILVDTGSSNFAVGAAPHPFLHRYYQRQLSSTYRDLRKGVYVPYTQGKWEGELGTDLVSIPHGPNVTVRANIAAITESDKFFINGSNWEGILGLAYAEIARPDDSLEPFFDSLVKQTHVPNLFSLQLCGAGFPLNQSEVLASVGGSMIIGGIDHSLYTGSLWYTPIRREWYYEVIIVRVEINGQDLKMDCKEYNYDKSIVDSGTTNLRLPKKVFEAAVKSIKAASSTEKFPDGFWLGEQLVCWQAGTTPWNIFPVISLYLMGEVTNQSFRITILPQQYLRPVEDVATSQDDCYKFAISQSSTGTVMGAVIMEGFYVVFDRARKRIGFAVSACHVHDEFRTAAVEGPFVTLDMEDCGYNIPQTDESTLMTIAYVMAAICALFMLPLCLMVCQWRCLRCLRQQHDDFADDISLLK

The first assay has as its target T1, Beta-secretase 1 (Homo sapiens, UniProt P56817). In words: Inhibition of BACE1 at 20 ug/ml by FRET assay.
Conditions: not given
As usually defined, the inhibition is the relative decrease from the control value, in per cent. Take `O=C(CCc1ccccc1)Nc1cc(Br)ccc1OCCN1CCOCC1`: the inhibition is 13.8%.
On the same count and under the same terms, for `O=C(Cc1cccc2ccccc12)Nc1cc(Br)ccc1OCCNCCCO` the value was 15.1%; for `CN(CCOc1ccc(Br)cc1NC(=O)Cc1cccc2ccccc12)Cc1ccccc1`, 41.8%.
Same read-out and setting: for `NCCCCCCNCCOc1ccc(Br)cc1NC(=O)Cc1cccc2ccccc12` the value was 83.7%; for `O=C(Cc1cccc2ccccc12)Nc1cc(Br)ccc1OCCN1CCOCC1`, 39.4%; for `O=S(=O)(Nc1cc(Br)ccc1OCCN1CCOCC1)c1ccc(Br)cc1`, 14.3%.
Same read-out and setting: to `O=C(Cc1cccc2ccccc12)Nc1cc(Br)ccc1OCCNC1CCCCC1` belongs 64.5%; to `CCOC(=O)C1CCN(CCOc2ccc(Br)cc2NC(=O)Cc2cccc3ccccc23)CC1`, 34.8%.
Turning to `CCOC(=O)CN(C)CCOc1ccc(Br)cc1NC(=O)Cc1cccc2ccccc12`, the inhibition came out at 24.7%.

A further assay concerns the target T1, Beta-secretase 1. The conditions noted are these: 2 ug/ml.
Description: Inhibition of BACE1 at 2 ug/ml by FRET assay
Regarding `CC(C)C[C@H](NC(=O)[C@H](CC(N)=O)NC(=O)[C@@H](NC(=O)[C@@H](N)CCC(=O)O)C(C)C)[C@@H](O)C[C@@H](C)C(=O)N[C@@H](C)C(=O)N[C@@H](CCC(=O)O)C(=O)N[C@@H](Cc1ccccc1)C(=O)O` (H-EVN[LeuΨ(S-CHOHCH2)Ala]AEF-OH), the inhibition worked out at 102%.

A further assay has as its target T1, Beta-secretase 1. In words: Inhibition of BACE1 by FRET assay.
Conditions: not given
A word on the IC50: it is the point on the concentration scale where inhibition reaches its midpoint. A high value points to lower potency. For the compound `NCCCCCCNCCOc1ccc(Br)cc1NC(=O)Cc1cccc2ccccc12`, the midpoint of inhibition, the IC50, lay at 18.3 µM.
Take `O=C(Cc1cccc2ccccc12)Nc1cc(Br)ccc1OCCNC1CCCCC1`: it took 47.1 µM to reach half-maximal inhibition (IC50).
